Assay results published in patent US4605744A, “Imidazole derivatives” (Hoffmann-La Roche Inc., priority 1985, dated 1986).
Structures can show the parent of a compound that is named as a salt. Where two headings read alike, the source gives them in different places.

Assays:
S. aureus Giorgio = assay: In vivo antibacterial activity (PD50); settings: Staphylococcus aureus; sc; Table 9
C. freundii 8ASM = assay: In vivo antibacterial activity (PD50); settings: Citrobacter freundii, sc, challenge 1000 LD50s, 1 treatment, Table 11
P. aeruginosa 8710 = assay: In vivo antibacterial activity (PD50); settings: Pseudomonas aeruginosa, 8710, sc, 2 treatments
E. aerogenes 83 = assay: In vivo antibacterial activity (PD50); settings: Klebsiella aerogenes, sc, Table 9
P. vulgaris 100 = assay: In vivo antibacterial activity (PD50); settings: Proteus vulgaris; sc; challenge 100 LD50s; 1 treatment; Table 11
P. aeruginosa 6720 = assay: In vivo antibacterial activity (PD50); settings: Pseudomonas aeruginosa, 6720, sc, 2 treatments
S. pneumoniae 6301 = assay: In vivo antibacterial activity (PD50); settings: Streptococcus pneumoniae, sc, Table 9
E. aerogenes 8 = assay: In vivo antibacterial activity (PD50)
K. pneumoniae 8357 = assay: animal or person; format: in vivo; settings: Klebsiella pneumoniae, 8357, sc, read-out: PD50
S. schottmuelleri = assay: In vivo antibacterial activity (PD50); settings: sc; challenge 163 LD50s; 1 treatment; Table 11
Protocol: (§1) In Tables 9-14, the results of the in vivo activity against certain microorganisms of compounds I, M and N as given. […] The results in these Tables and the PD50 's were determined by the procedure set forth on page 160 in Beskid et al., Antimicrobial Agents and Chemotherapy, Vol. 20, No. 2 pp. 159-167 (Aug. 1981) for "in vivo studies".

E. cloacae 214 = assay: In vivo antibacterial activity (PD50); settings: Enterobacter cloacae, sc, challenge 3.8 LD50s, 2 treatments, Table 11
Protocol: as §1

P. aeruginosa 6148B = assay: In vivo antibacterial activity (PD50); settings: Pseudomonas aeruginosa, sc
S. pneumoniae SC = assay: In vivo antibacterial activity (PD50); settings: Streptococcus pneumoniae
P. mirabilis 190 = assay: In vivo antibacterial activity (PD50); settings: Proteus mirabilis, sc, challenge 10^4 LD50s, 1 treatment, Table 11
E. coli 4 = assay: In vivo antibacterial activity (PD50); settings: Escherichia coli, sc, Table 9
S. pyogenes 503-782 = assay: In vivo antibacterial activity (PD50); settings: Streptococcus pyogenes, 503782; sc; Table 9
E. coli 387-1 = assay: In vivo antibacterial activity (PD50); settings: Escherichia coli, 3871; sc; challenge 127 LD50s; 1 treatment; Table 11
S. marcescens S3 = assay: In vivo antibacterial activity (PD50); settings: Serratia marcescens, S3, sc, read-out: PD50
P. aeruginosa POW151 = assay: In vivo antibacterial activity (PD50); settings: Pseudomonas aeruginosa, sc, Table 9
S. marcescens S5 = assay: In vivo antibacterial activity (PD50); settings: Serratia marcescens, sc, Table 9
K. pneumoniae 39 = assay: In vivo activity alone and in combination (PD50, FIC); settings: Klebsiella pneumoniae, 39, sc, alone
Protocol: as §1
(§2) In the Tables, the fractional inhibitory concentration index (FIC) for synergistic combination of a compound of this invention (X) with known antibiotic compound (Y) is determined by the following formula:
(§3) FIC=(PD50 (X combination)/PD50 (X alone)+(PD50 (Y
(§4) combination)/PD50 (Y alone)
(§5) An FIC of ≤0.60 is indicative of synergy. The synergy rating in the Tables is as follows:
(§6) In the combination, the parts are parts by weight, i.e. 10 to 1 is 10 parts by weight to 1 part by weight.

K. pneumoniae R2296 = assay: as above; settings: Klebsiella pneumoniae, sc, alone
Protocol: as §1, §2, §3, §4, §5, §6

E. cloacae 4633 = assay: as above; settings: Enterobacter cloacae, 4633; sc; alone; read-out: PD50 (alone)
Protocol: as §1, §2, §3, §4, §5, §6

K. pneumoniae 503-990A = assay: as above; settings: Klebsiella pneumoniae, 503990A, sc, alone
Protocol: as §1, §2, §3, §4, §5, §6

E. coli 736 = assay: as above; settings: Escherichia coli, sc, alone
Protocol: as §1, §2, §3, §4, §5, §6

E. coli BC5524 = assay: as above; settings: Escherichia coli, BC5524; sc; alone; read-out: PD50 (alone)
Protocol: as §1, §2, §3, §4, §5, §6

[1] = challenge 10 LD50s, Table 10, read-out: PD50
[2] = challenge 562 LD50s, Table 10, read-out: PD50
[3] = challenge >10^4 LD50s, Table 11, read-out: PD50
[4] = Klebsiella aerogenes, 8, sc, read-out: PD50, sc, challenge 10 LD50s, 2 treatments, Table 11
[5] = Klebsiella aerogenes, 8, sc, Table 9, read-out: PD50
[6] = challenge 32 LD50s, 2 treatments, Table 11

SMILES	ED50 (S. aureus Giorgio) [mg/kg]	ED50 (C. freundii 8ASM) [mg/kg]	ED50 (P. aeruginosa 8710; [1]) [mg/kg]	ED50 (P. aeruginosa 8710; [2]) [mg/kg]	ED50 (P. aeruginosa 8710; [3]) [mg/kg]	ED50 (E. aerogenes 83) [mg/kg]	ED50 (P. vulgaris 100) [mg/kg]	ED50 (P. aeruginosa 6720; challenge 35 LD50s, Table 11) [mg/kg]	ED50 (P. aeruginosa 6720; challenge 3511 LD50s, Table 10) [mg/kg]	ED50 (S. pneumoniae 6301) [mg/kg]	ED50 (E. aerogenes 8; [4]) [mg/kg]	ED50 (E. aerogenes 8; [5]) [mg/kg]	ED50 (K. pneumoniae 8357) [mg/kg]	ED50 (S. schottmuelleri) [mg/kg]	ED50 (E. cloacae 214) [mg/kg]	ED50 (P. aeruginosa 6148B; [6]) [mg/kg]	ED50 (K. pneumoniae 39) [mg/kg]	ED50 (K. pneumoniae R2296) [mg/kg]	ED50 (E. cloacae 4633) [mg/kg]	ED50 (E. coli BC5524) [mg/kg]	other results
CC1(C)S[C@@H]2[C@H](/N=C/N3CCCCCC3)C(=O)N2[C@H]1C(=O)O [Amdinocillin, amdinocillin, reference compound]	> 250	0.76	> 250	> 250	> 250	> 250	45	> 250	> 250	192	167	> 250	6.7	0.25	< 10	> 250					ED50 (S. pneumoniae SC; Table 9, read-out: PD50): < 2 mg/kg; ED50 (P. mirabilis 190): 117 mg/kg; ED50 (E. coli 4): 4.6 mg/kg; ED50 (S. pyogenes 503-782): 80 mg/kg; ED50 (E. coli 387-1): < 0.2 mg/kg; ED50 (S. marcescens S3): 2.7 mg/kg; ED50 (P. aeruginosa POW151): 143 mg/kg; ED50 (S. marcescens S5): > 250 mg/kg
CC1(C)S[C@@H]2[C@H](N=CN3CCC(CCCn4ccnc4N)CC3)C(=O)N2[C@H]1C(=O)O [I, [2S-(2alpha,5alpha,6beta)]-6-[[[4-[3-(2-amino-1H-imidazol-1-yl)propyl]piperidinyl]methylene]amino]-3,3-dimethyl-7-oxo-4-thia-1-azabicyclo[3.2.0]hpetane-2-carboxylic acid hydrochloride]	> 250					> 250				> 250		> 250					115	> 250	6.4	> 250	ED50 (S. pneumoniae SC; read-out: PD50): 3.6 mg/kg; ED50 (E. coli 4): 1.9 mg/kg; ED50 (K. pneumoniae 503-990A; Table 14 line (1)): < 2 mg/kg; ED50 (K. pneumoniae 503-990A; Table 14 line (2)): < 2 mg/kg; ED50 (E. coli 736): 0.05 mg/kg; ED50 (S. pyogenes 503-782): 59 mg/kg; ED50 (P. aeruginosa POW151): 111 mg/kg; ED50 (S. marcescens S5): > 250 mg/kg
CC1(C)S[C@@H]2[C@H](N=CN3CCC(CC4=NCCN4)CC3)C(=O)N2[C@H]1C(=O)O [M, [2S-(2alpha,5alpha,6beta)]-6-[[[4-[(4,5-dihydro-1H-imidazol-2-yl)methyl]-1-piperidinyl]methylene]amino]-3,3-dimethyl-7-oxo-4-thia-1-azabicyclo[3.2.0]heptane-2-carboxylic acid hydrochloride]			54	59					29								5	> 250	34	80	ED50 (E. aerogenes 8; Klebsiella aerogenes, 8, sc, read-out: PD50, sc, challenge 24 LD50s, 2 treatments, Table 10): 60 mg/kg; ED50 (P. aeruginosa 6148B; challenge 4.5 LD50s, 3 treatments, Table 10): < 20 mg/kg; ED50 (P. aeruginosa 6148B; challenge 33 LD50s, 3 treatments, Table 10): < 20 mg/kg; ED50 (K. pneumoniae 503-990A): 9.4 mg/kg
CC1(C)S[C@@H]2[C@H](N=CN3CCC(CCC4=NCCN4)CC3)C(=O)N2[C@H]1C(=O)O [N, [2S-(2alpha,5alpha,6beta)]-6-[[[4-[4,5-dihydro-1H-imidazol-2-yl)ethyl]-1-piperidinyl]methylene]amino]-3,3-dimethyl-7-oxo-4-thia-1-azabicyclo[3.2.0]heptane-2-carboxylic acid hydrochloride]		0.22			50		67	20			> 250		6.2	< 0.05	< 10	37	18	> 250	12	114	ED50 (P. mirabilis 190): 140 mg/kg; ED50 (K. pneumoniae 503-990A): 5.5 mg/kg; ED50 (E. coli 387-1): < 0.2 mg/kg; ED50 (S. marcescens S3): < 0.5 mg/kg
